How the values were obtained:
[1] = system: protein kinase (C-terminal His-tag); test: SPR binding profiles of binders against captured protein kinase, single concentration; conditions: 10 μM ATP; FIG. 8
Source text: A BIACORE® S51 instrument (Biacore AB, Uppsala, Sweden) was used. This instrument has two Y-type flow cells which allow a dual flow of fluids over a sensor chip surface, so-called hydrodynamic addressing, as described in, for example, EP-B1-1021703 (the disclosure of which is incorporated by reference herein). The instrument uses three parallel detection spots on the sensor chip. As sensor chip was used Series S Sensor Chip CM5 (Biacore AB, Uppsala, Sweden) which has a gold-coated surface with a covalently linked carboxymethyl-modified dextran polymer hydrogel. The output from the instrument is a “sensorgram” which is a plot of detector response (measured in “resonance units”, RU) as a function of time. An increase of 1000 RU corresponds to an increase of mass on the sensor surface of approximately 1 ng/mm^2.
100 μg/ml of Penta-His™ antibody, BSA-free (Qiagen, Venlo, Netherlands) in 0.15 M NaCl was diluted to 30 μg/ml in 10 mM sodium acetate buffer pH 5.0 and immobilized on a Series S Sensor Chip CM5 by amine coupling according to the manufacturer's instructions. The contact time was 10 min, the flow rate was 10 μl/min, and 10 mM PBS was used as running buffer. A little less than 12000 RU of antibody were immobilized. […]

HSA [2] = biological target: T1, HSA (Homo sapiens, UniProt P02768); test: SPR (BIACORE S51) competition assay for HSA-binding site specificity, dissociation-phase response of mixtures; conditions: for effect of additional reference compounds on dissociation response of S1 on HSA: S1 constant 0.1 μM, reference 0-50 μM, d2 report point, FIG. 6
T1 construct: purchased Sigma A-4327

HSA [3] = biological target: T1, HSA; conditions: known site specificity of reference compounds (crystallography studies); cited from earlier work

T1 sequence (P02768 25-609): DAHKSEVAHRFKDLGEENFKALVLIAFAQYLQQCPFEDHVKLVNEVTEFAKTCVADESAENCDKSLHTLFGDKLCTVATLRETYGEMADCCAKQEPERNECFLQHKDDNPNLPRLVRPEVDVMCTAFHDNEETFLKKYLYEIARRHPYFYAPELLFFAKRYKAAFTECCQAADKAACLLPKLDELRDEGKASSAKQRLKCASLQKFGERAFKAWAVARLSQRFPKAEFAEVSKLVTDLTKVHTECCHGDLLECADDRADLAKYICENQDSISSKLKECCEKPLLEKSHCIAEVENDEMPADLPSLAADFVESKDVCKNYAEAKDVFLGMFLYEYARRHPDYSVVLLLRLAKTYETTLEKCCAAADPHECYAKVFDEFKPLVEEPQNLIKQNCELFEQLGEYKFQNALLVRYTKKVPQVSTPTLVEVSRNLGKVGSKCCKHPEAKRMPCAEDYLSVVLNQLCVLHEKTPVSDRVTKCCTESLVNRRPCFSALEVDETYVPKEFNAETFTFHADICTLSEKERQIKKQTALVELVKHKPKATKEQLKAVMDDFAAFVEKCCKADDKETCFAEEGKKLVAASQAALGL

| SMILES | association/dissociation profile on the protein kinase [1] | effect of the reference compound on binding/dissociation phase of S1 on HSA (HSA [2]) | effect of additional reference compounds on dissociation response of S1 on HSA (HSA [2]) | known HSA-binding site (HSA [3]) |
| --- | --- | --- | --- | --- |
| Nc1ncnc2c1ncn2[C@@H]1O[C@H](COP(=O)(O)OP(=O)(O)OP(=O)(O)O)[C@@H](O)[C@H]1O [ATP, adenosine triphosphate] | very rapid binding and dissociation profile | – | – | – |
| C[C@H]1O[C@@H](O[C@H]2[C@@H](O)C[C@H](O[C@H]3[C@@H](O)C[C@H](O[C@H]4CC[C@@]5(C)[C@H](CC[C@@H]6[C@@H]5CC[C@]5(C)[C@@H](C7=CC(=O)OC7)CC[C@]65O)C4)O[C@@H]3C)O[C@@H]2C)C[C@H](O)[C@@H]1O [digitoxin] | – | does not seem to affect the dissociation phase much | – | – |
| O=C1NC(=O)C(c2ccccc2)(c2ccccc2)N1 [phenyloin] | – | – | follow the behaviour of warfarin and naproxen respectively | site II |
| COc1cc(NS(=O)(=O)c2ccc(N)cc2)nc(OC)n1 [sulfadimethoxine] | – | – | deviates from the behaviour of warfarin | site I |

— US7320879B2, “Method of determining site-specificity and kit therefor” (Biacore AB, priority 2002, dated 2008)
